# Assay: gradient 5% acetonitrile 3 min, to 50% in 2 min, to 85% in 15 min, held 3 min, 100 µL/min
# Details: column: Zorbax Extend-C18 2.1 x 50 mm; eluents: water / acetonitrile, 0.1% formic acid
# Summary of the method: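 The system's dead and dwell volumes were 40 μL and 900 μL, with a Zorbax Extend-C18 column (2.1 × 50 mm, 1.8 μm) run at 100 μL/min in water and acetonitrile containing 0.1% formic acid each. Pure standards were analyzed in mixtures of ~100 molecules by HPLC–quadrupole time-of-flight mass spectrometry in positive and negative ionization mode. Retention time was assigned from computationally picked, manually inspected adduct peaks.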
row,RP-LC retention time [s],Structure (SMILES)
1,734,Cc1ccc(NC(=O)Cn2nc3n(c2=O)CCCCC3)cc1F
2,769,CN1c2ccc(Cl)cc2C(=O)NC12CCN(C(=O)c1ccc3c(c1)OCO3)CC2
3,580,O=C(Cc1cn2cc(F)ccc2n1)Nc1ccccc1
4,740,O=C1N(CCNS(=O)(=O)c2cnc[nH]2)C(c2ccccc2)C12CCCCC2 (configuration not stated)
5,685,O=C(NCCn1nc(-c2cccs2)ccc1=O)c1ccc(-n2cccn2)nn1
6,893,O=C(Cc1cccs1)Nc1cnc(-c2ccccc2)nc1
7,820,O=C(CSc1nc(=O)n2cc(Cl)ccc2n1)Nc1ccc(OC(F)(F)F)cc1
8,1270,Cc1sc(-c2cc(C(F)(F)F)on2)cc1S(=O)(=O)N1CCCCCC1
9,834,COC(=O)c1ccc(NC(=O)C(=O)NCC2(c3ccc(F)cc3)CC2)cc1
10,636,Cc1ccn2cc(-c3ccc(NS(=O)(=O)c4ccccc4F)cc3)nc2n1
11,863,CCc1nc(-c2nnn(-c3ccccc3)c2C)no1
12,868,O=C(NCCc1csc(-c2ccc(F)cc2)n1)c1ccco1
13,1270,Cc1cc(C)c(S(=O)(=O)N2CCCC2c2nc(-c3ccc(F)cc3)no2)cc1C (configuration not stated)
14,932,CCn1c(=O)sc2cc(S(=O)(=O)N3CCC(C(=O)NCc4ccc(C)cc4)CC3)ccc21
15,778,CCOC(=O)C1CCN(c2cc3c(cc2NC(=O)NC(C)CC)n(C)c(=O)n3C)CC1 (configuration not stated)
16,678,Cc1noc(COC2CCCN(C(=O)CCc3c(C)noc3C)C2)n1 (configuration not stated)
17,719,CCCn1cc(C2=CCN(C(=O)NCC3CCCO3)CC2)c2cccnc21 (configuration not stated)
18,585,Cc1ccc(CNC(=O)c2ccc3c(c2)ncn3CCN2CCCC2)cc1
19,784,COc1ccc(C(=O)Nc2cc(-c3ccccn3)no2)cc1
20,1100,Cc1ccccc1-c1noc(Cn2cnc3c(cnn3-c3cc(Cl)ccc3C)c2=O)n1
21,964,Cc1ccc(NC(=O)Nc2cccn3nc(C(C)C)nc23)cc1
22,740,O=C(NCCc1ccccc1)C1CCN(C(=O)C2Sc3ccccc3NC2=O)CC1 (configuration not stated)
23,636,O=C(c1ccc2ncnc(N3CCCCC3)c2c1)N1CCCCC1
24,666,COc1ccc(CNC(=O)Cn2cnc3nc(N4CCC(C(=O)NC5CC5)CC4)sc3c2=O)cc1
25,878,COC(=O)c1ccc(S(=O)(=O)N2CCN(S(=O)(=O)C3CC3)CC2)cc1

row,RP-LC retention time [s],Structure (SMILES)
1,610,O=C(CCN(CC1CCCO1)C(=O)c1cccc(Br)c1)N1CCNCC1 (configuration not stated)
2,1030,O=C(Nc1c(F)cc(F)cc1F)c1sc2ccccc2c1Cl
3,640,Cc1cc(C)n(-c2ccc(=O)n(CCNC(=O)c3cc(C)on3)n2)n1
4,817,COC(=O)c1cccc(C(=O)Nc2cccc(OC)c2)n1
5,813,Cc1ccc(NC(=O)c2csc(-c3ccc(N4CCCC4)nc3)n2)c(C)c1
6,901,O=C(NCCc1csc(-c2cccs2)n1)C1CCN(C(=O)CCC2CCCC2)CC1
7,661,COCC1CN(C)CC12CCN(S(=O)(=O)c1cc(F)ccc1C)CC2 (configuration not stated)
8,548,O=C1C(O)C2(CCCCC2)N1C1CCN(Cc2ccc(F)c(F)c2)CC1 (configuration not stated)
9,640,COC(=O)Cn1c(=O)c(=O)n(CC(=O)OC)c2ccccc21
10,618,Clc1ccc(-c2nc(N3CCN(c4ccccn4)CC3)c3ccccc3n2)cc1
11,1100,CSc1cccc(N2C(=O)C3N=NN(Cc4nc(-c5ccc(C)c(C)c5)no4)C3C2=O)c1 (configuration not stated)
12,765,Cc1cccc(-c2ncccc2CNS(=O)(=O)Cc2ccc(Cl)cc2)c1
13,1070,O=C(Nc1nc(-c2ccccc2)cs1)C(=O)c1c[nH]c2ccccc12
14,799,Cc1cc2c(N3CCCC(C(=O)N4CCN(c5ccc(Cl)cc5)CC4)C3)nccc2s1 (configuration not stated)
15,659,CC(C)NC(=O)c1nc2ccccc2n(C)c1=O
16,728,CCn1cnc2ccc(-c3noc(Cc4ccc(OC)cc4)n3)cc21
17,685,CCOC(=O)CCNC(=O)N1CCC(N2C(=O)C3(CCCC3)C2c2scnc2C)CC1 (configuration not stated)
18,1060,O=C(Cn1cccc1-c1nc(-c2ccc3c(c2)OCO3)no1)Nc1cccc(Cl)c1
19,1140,COc1cc(-c2noc(-c3nc(-c4ccccc4F)no3)n2)cc(OC)c1OC
20,756,COc1ccc(NC(=O)Cn2nc(C(=O)N3CCCCC3)c3ccccc32)cc1OC
21,651,CC(C)n1c(CCNC(=O)c2ccccc2Cl)nc2cccnc21
22,766,CCOc1cc(=O)n2c(c1C(=O)NC1CCc3ccccc31)CCCCC2 (configuration not stated)
23,686,COc1ccc2[nH]cc(CCn3ccc4c(nnc5ccnn54)c3=O)c2c1
24,646,Cc1ccc2c(c1)C(=O)C1(O)CCN(c3ccccc3)C1=N2 (configuration not stated)
25,710,Cc1ccc(C)c(C(=O)N2C[C@@H](F)C[C@H]2C(=O)N2CCCCC2)c1

# Continued, compound first:
row,Structure (SMILES),RP-LC retention time [s]
1,COc1ccccc1N1CCN(S(=O)(=O)c2cc(-c3cc(C(F)(F)F)on3)cs2)CC1,1200
2,COc1ccc(NC(=O)CN2CCc3[nH]c4c(C)c(C)ccc4c(=O)c3C2)cc1Cl,650
3,O=C(NCc1cccnc1)C1CCCN(c2ncnc3c2nc2n3CCCCC2)C1 (configuration not stated),577
4,O=C(CSc1ccc(N2CCCC(C(=O)NC3CC3)C2)nn1)Nc1c(F)cccc1F (configuration not stated),617
5,CC(=O)NCc1nc(-c2ccc(N3CCSCC3)nc2)no1,653
6,COc1ccc(Nc2nc(-c3nnn(-c4ccc(Br)cc4F)c3C)ns2)cc1,1080
7,CN(C)CCCn1c2c3ccccc3ccc2c2oc(=O)c3ccccc3c21,802
8,CCc1nnc2ccc(-c3noc(-c4cccc(F)c4)n3)cn12,936
9,CCOC(=O)c1noc2nc(C)nc(N3CCN(c4ccc(F)cc4)CC3)c12,1070
10,Cc1ccc(S(=O)(=O)N2CCC(c3noc(-c4ccccc4C)n3)CC2)cc1C,1260
11,COC[C@@H]1OCCN(S(=O)(=O)c2cccc(F)c2)[C@H]1c1ccccc1,928
12,CCN(CC)CCNC(=O)c1sc2ncn(Cc3ccccc3F)c(=O)c2c1C,638
13,CCCc1cc(NC)n2ncc(-c3ccccc3)c2n1,683
14,Cc1nn2c(CNS(=O)(=O)c3cccc(Cl)c3C)c(-c3ccccc3)nc2s1,942
15,CCCCN1CCN(C(=O)CN2CCN(Cc3ccccc3)C2=O)CC1,589
16,O=C(Cn1c(CO)nc2ccccc21)N1CCCc2ccccc21,628
17,CCn1ncc(NC(=O)Cc2ccc(Cl)cc2)c(N2CCOCC2)c1=O,836
18,O=S(=O)(c1cccc(-c2nnc(-c3ccccc3Br)o2)c1)N1CCOCC1,940
19,CC(=O)N1c2ccccc2CC1c1nc(C(C)C)no1 (configuration not stated),841
20,CCOC(=O)c1ccc2c(c1)NCc1cccc(OC)c1O2,1030
21,CCCCNC(=O)CSc1nnc2c3cc(-c4ccccc4)nn3ccn12,780

row,Structure (SMILES),RP-LC retention time [s]
1,COc1ccc(CNC(=O)C2CCCN(C(=O)c3[nH]c(C)c(C(=O)OC(C)C)c3C)C2)cc1 (configuration not stated),812
2,Cc1nc(-c2csc(S(=O)(=O)N3CCC(C(=O)N4CCCCCC4)CC3)c2)no1,859
3,COc1ccc(Cl)cc1NC(=O)N1CC2CC1C(=O)O2 (configuration not stated),699
4,Cc1ccnc(N2CCCC(C(=O)NCCCN3CCN(c4cc(Cl)ccc4C)CC3)C2)n1 (configuration not stated),670
5,Cn1c(=O)n([C@H]2CCN(C(=O)c3ccc(Cn4ccnc4)o3)C2)c2ncccc21,573
6,O=C(NCC(=O)N1CCN(c2ccccn2)CC1)c1ccc(OC(F)(F)F)cc1,635
7,COc1ccc(NC(=O)NC2CCN(c3cc(N4CCCC4)cnn3)C2)cc1F (configuration not stated),625
8,CC(C)n1nc(-c2nc(-c3cccc(Cl)c3)no2)ccc1=O,1150
9,CCn1cnc2cc(CNC(=O)c3ccsc3)ccc21,572
10,CCOC(=O)Cn1cnc2c(-c3ccc(Br)cc3)csc2c1=O,998
11,CCc1ccc(S(=O)(=O)Nc2ccc(N3CCCN(C)CC3)cc2C(=O)O)cc1,650
12,CCCN(CCC)C1Cc2cc(OC)c(OC)cc2C1,680
13,COc1ccc(NC(=O)C2CCCN(c3nnc4c(Cl)cccn34)C2)cc1OC (configuration not stated),667
14,CCOCC(=O)Nc1ccc(-c2cn3c(C(=O)N(C)C)csc3n2)cc1,647
15,CC(C)CC(=O)Nc1ccc(OCc2cc(C(=O)NC(C)C)no2)cc1,816
16,O=C1CN(C(=O)CN2CCCCC2)C(c2ccccc2)c2cc(Br)ccc2N1 (configuration not stated),656
17,CCc1ccc(C2=C(C)C(N3CCCN(C(=O)C4CCCO4)CC3)=NS2(=O)=O)cc1 (configuration not stated),778
18,CCn1c(C(=O)NCc2ccccc2OC)cc2sccc21,1010
19,Cc1[nH]c(C(=O)N2CCCC(C(=O)NC(c3cccs3)C(C)C)C2)c(C)c1C(=O)OC(C)C (configuration not stated),987
20,Cc1nc(N2CCOCC2)c2c(C(=O)Nc3ccc(Br)cc3F)c(C)oc2n1,976
21,N#CC(C#N)=Cc1ccc(O)c(O)c1,841

# From the METLIN SMRT retention time set (Domingo-Almenara et al. 2019)
